Measured values: ChEMBL document CHEMBL5247638, “From rational design to serendipity: Discovery of novel thiosemicarbazones as potent trypanocidal compounds” (Eur J Med Chem, 2022)
Activity calls are given as the source filed them. No cut-off for these calls is given here.

Experiments:
Trypanosoma brucei [1] = assay: Antiparasitic activity against Trypanosoma brucei incubated for 72 hrs by SYBR Green 1 dye based fluorescence assay; format: functional, organism-based
Trypanosoma cruzi [2] = assay: Antiparasitic activity against Trypanosoma cruzi CA-I/72 incubated for 72 hrs by DAPI staining based microscopic analysis; format: functional, organism-based; conditions: CA-I/72, 72 h
Trypanosoma brucei [3] = assay: Inhibition of TbrCatL using Z-FR-AMC as substrate at 100 uM preincubated for 10 mins followed by substrate addition by fluorimetric analysis relative to control
Trypanosoma brucei [4] = assay: Inhibition of TbrCatL using Z-FR-AMC as substrate at 100 uM by fluorimetric analysis relative to control
[5] = Inhibition of TbrCatL using Z-FR-AMC as substrate preincubated for 10 mins followed by substrate addition in presence of 0% Triton by fluorimetric analysis; set-up: species or system Trypanosoma brucei
[6] = Inhibition of TbrCatL using Z-FR-AMC as substrate preincubated for 10 mins followed by substrate addition by fluorimetric analysis; set-up: species or system Trypanosoma brucei
[7] = Inhibition of TbrCatL using Z-FR-AMC as substrate preincubated for 10 mins followed by substrate addition in presence of 0.01% Triton by fluorimetric analysis; set-up: species or system Trypanosoma brucei
[8] = biological target: Cruzipain (Trypanosoma cruzi) (UniProt P25779); assay: Inhibition of Trypanosoma cruzi cruzain using Z-FR-AMC as substrate at 100 uM preincubated for 10 mins followed by substrate addition by fluorimetric analysis relative to control
Sequence of Cruzipain (Trypanosoma cruzi) (P25779 123-467 limits assumed): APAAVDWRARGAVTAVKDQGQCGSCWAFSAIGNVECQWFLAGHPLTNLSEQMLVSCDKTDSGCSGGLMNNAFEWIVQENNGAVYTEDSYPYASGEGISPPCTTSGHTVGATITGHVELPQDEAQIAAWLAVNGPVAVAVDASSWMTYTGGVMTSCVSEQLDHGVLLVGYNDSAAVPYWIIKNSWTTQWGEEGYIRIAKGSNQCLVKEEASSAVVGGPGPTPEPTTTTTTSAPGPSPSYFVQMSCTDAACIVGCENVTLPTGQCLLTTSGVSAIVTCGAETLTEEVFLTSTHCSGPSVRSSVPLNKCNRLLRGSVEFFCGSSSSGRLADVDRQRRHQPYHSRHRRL

[9] = biological target: Cruzipain (Trypanosoma cruzi) (UniProt P25779); assay: Inhibition of Trypanosoma cruzi cruzain using Z-FR-AMC as substrate at 100 uM by fluorimetric analysis relative to control
[10] = Selectivity index, ratio of CC50 for mouse myoblasts cells to EC50 for Trypanosoma cruzi CA-I/72; format: toxicity; conditions: read-out: Ratio CC50/EC50
Cruzipain = Cruzipain (Trypanosoma cruzi, UniProt P25779); assay: Inhibition of Trypanosoma cruzi cruzain using Z-FR-AMC as substrate preincubated for 10 mins followed by substrate addition by fluorimetric analysis
Sequence of Cruzipain (P25779 whole entry): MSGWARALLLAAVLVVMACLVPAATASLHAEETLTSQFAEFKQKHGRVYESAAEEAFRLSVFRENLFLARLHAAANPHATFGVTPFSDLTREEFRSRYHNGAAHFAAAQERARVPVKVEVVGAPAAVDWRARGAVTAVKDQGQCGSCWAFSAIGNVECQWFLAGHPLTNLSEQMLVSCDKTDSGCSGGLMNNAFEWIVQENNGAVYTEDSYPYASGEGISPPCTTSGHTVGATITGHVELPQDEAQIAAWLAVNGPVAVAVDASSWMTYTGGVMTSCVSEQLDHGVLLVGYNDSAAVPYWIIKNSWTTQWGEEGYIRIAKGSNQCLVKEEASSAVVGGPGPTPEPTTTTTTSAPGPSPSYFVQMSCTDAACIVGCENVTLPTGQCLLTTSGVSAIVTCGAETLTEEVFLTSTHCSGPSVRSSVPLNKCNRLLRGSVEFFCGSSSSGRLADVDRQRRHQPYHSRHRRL

Trypanosoma cruzi [11] = assay: Potency index, ratio of benznidazole EC50 to test compound EC50 for antiparasitic activity against Trypanosoma cruzi CA-I/72 incubated for 72 hrs by DAPI staining based microscopic analysis; format: functional
[12] = Inhibition of TbrCatL using Z-FR-AMC as substrate preincubated for 10 mins in presence of BSA followed by substrate addition by fluorimetric analysis; set-up: species or system Trypanosoma brucei
Trypanosoma cruzi [13] = assay: Potency index, ratio of pentamidine EC50 to test compound EC50 for antiparasitic activity against Trypanosoma cruzi CA-I/72 incubated for 72 hrs by DAPI staining based microscopic analysis; format: functional
[14] = biological target: Nonstructural protein 3 (Zika virus) (UniProt A0A024AXB9); assay: Inhibition of Zika virus NS2B-NS3 protease using Bz-Nle-Lys-Lys-Arg-AMC as substrate at 0.78 uM preincubated for 10 mins followed by substrate addition relative to control
Sequence of Nonstructural protein 3 (Zika virus) (A0A024AXB9 as listed by the source): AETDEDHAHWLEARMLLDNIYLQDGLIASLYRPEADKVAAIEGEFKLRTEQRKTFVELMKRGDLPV

[15] = Inhibition of TbrCatL using Z-FR-AMC as substrate preincubated for 10 mins followed by substrate addition in presence of 0.1% Triton by fluorimetric analysis; set-up: species or system Trypanosoma brucei
[16] = biological target: Cruzipain (Trypanosoma cruzi) (UniProt P25779); assay: Inhibition of Trypanosoma cruzi cruzain using Z-FR-AMC as substrate at 0.25 to 1 uM incubated for 10 mins by fluorimetric analysis; conditions: dose 0.25-1 µM

Compound | EC50 (Trypanosoma brucei [1]) | EC50 (Trypanosoma cruzi [2]) | inhibition (Trypanosoma brucei [3]) | inhibition (Trypanosoma brucei [4]) | IC50 [6] | inhibition [9] | IC50 (Cruzipain) | further results
OCCNCc1cn(-c2ccc(Cl)cc2)nn1 | > 50 µM | > 10 µM | – | – | – | – | – | –
OCCNCc1cn(-c2ccc(Br)cc2Cl)nn1 | > 50 µM | > 10 µM | – | – | – | – | – | –
NC(=S)N/N=C/c1cn(-c2ccc(Br)cc2Cl)nn1 | > 50 µM | > 10 µM | 98% | 25% | 2.5 µM | 16% | – | IC50 [5]: 0.6 µM; IC50 [7]: 2 µM; inhibition [8]: 6%
NC(=S)N/N=C/c1cn(-c2ccc(Cl)cc2)nn1 | > 50 µM | > 10 µM | 91% | 73% | 16.5 µM | 52% | – | IC50 [5]: 1 µM; IC50 [7]: 16 µM; inhibition [8]: 72%
OCCNCc1ccc(-c2ccc(Cl)c(Cl)c2)o1 | > 50 µM | > 10 µM | 40% | 29% | – | 62% | – | inhibition [8]: 55%
O=C(Cn1ccnc1[N+](=O)[O-])NCc1ccccc1 [BENZNIDAZOLE] | – | 5.4 µM | – | – | – | – | – | selectivity ratio [10]: > 9
OCC(CO)NCc1ccc(-c2ccc(Br)cc2Cl)o1 | 39.5 µM | > 10 µM | – | 64% | 90 µM | – | 149 µM | –
NC(=S)N/N=C/c1ccc(-c2ccc(Br)cc2Cl)o1 | > 50 µM | 0.027 µM | 90% | 22% | 0.05 µM | 17% | 0.45 µM | Ratio EC50 (Trypanosoma cruzi [11]): 200; selectivity ratio [10]: > 370; IC50 [12]: 14 µM; Ratio EC50 (Trypanosoma cruzi [13]): 200; inhibition [14]: 8%; IC50 [15]: 0.7 µM; IC50 [5]: 0.006 µM; IC50 [7]: 0.05 µM; inhibition [8]: 70%; inhibition [16]: inactive
OCC(CO)NCc1ccc(-c2ccc(Cl)c(C(F)(F)F)c2)o1 | > 50 µM | > 10 µM | 51% | 0% | – | – | 133 µM | –
OCCNCc1ccc(-c2ccc(Br)cc2Cl)o1 | 13 µM | > 10 µM | 67% | 68% | 78 µM | – | 51 µM | –
OCCNCc1cn(-c2ccc(Cl)c(Cl)c2)nn1 | > 50 µM | > 10 µM | – | – | – | – | – | –
Clc1ccc(-n2cc(CNCC3CCNCC3)nn2)cc1 | 49.7 µM | > 10 µM | – | – | 168 µM | – | – | –
CN(C)CCCNCc1ccc(-c2ccc(Cl)cc2Cl)o1 | – | – | – | 81% | – | 67% | – | –
CN(C)CCCNCc1ccc(-c2ccc(Br)cc2)o1 | – | – | – | 59% | – | 79% | – | –
NC(=S)N/N=C/c1ccc(-c2ccc(Cl)cc2)o1 | – | – | – | – | – | – | 1 µM | selectivity ratio [10]: > 18
N/C(S)=N/N=C/c1ccc(-c2ccc(Cl)cc2)o1 | 27 µM | 0.56 µM | 96% | 14% | 0.04 µM | 19% | – | IC50 [12]: 15 µM; inhibition [14]: 24%; IC50 [5]: 0.07 µM; IC50 [7]: 0.04 µM; inhibition [8]: 94%; inhibition [16]: inactive
O=C(NCCO)c1cn(-c2ccc(Br)cc2Cl)nn1 | > 50 µM | > 10 µM | – | – | – | – | – | –
Clc1cc(Br)ccc1-c1ccc(CNCCN2CCOCC2)o1 | 24.4 µM | 0.59 µM | 60% | 62% | 79 µM | – | 92 µM | selectivity ratio [10]: > 17
